Experimental data from US7795314B2, “Protective role of semapimod in necrotizing enterocolitis” (Cytokine PharmaSciences, Inc., priority 2005, dated 2010).

What was measured:
[1] = system: iNOS; assay: Western blotting of ileal mucosal scrapings, NEC model; type: in vivo, rat; conditions: FFH animals, 0.75 mg/kg IP daily, day 4, FIG. 5a
Experimental: (§1) All the experiments were carried out according to an animal protocol approved by the Animal Research and Care Committee (ARCC) of the Children's Hospital of Pittsburgh. Pregnant time-dated Sprague-Dawley rats (Charles River Labs, Wilmington, Mass.) were induced at term using a subcutaneous injection (1 to 2 U per animal) of Pitocin® (Monarch Pharmaceuticals, Bristol, Tenn.). Immediately after birth, the neonates were weighed and randomized into one of the different treatment groups. Group 1 consisted of neonatal rats left with their mother, and thus were breast-fed. […]
(§2) Newborn rats were sacrificed as indicated and segments of the terminal ileum were isolated. […] Protein concentration in the supernatant was determined using the bicinchoninic acid (BCA) Protein Assay kit form Sigma (St. Louis, Mo.) with bovine serum albumin as standard. […]

[2] = system: COX-2; assay: as above; type: in vivo, rat; conditions: FFH animals, 0.75 mg/kg IP daily, day 4, FIG. 5b
Experimental: as §1, §2

[3] = system: p38 MAP kinase; assay: Activation (phosphorylation) of p38 MAP kinase in IEC-6 cells, Western blotting pp38/p38; type: cell-based, rat
Experimental: The rat intestinal crypt cell line IEC-6 was purchased from the American Type Culture Collection (ATCC, Manassas, Va.). Cells were grown in tissue culture medium consisting of Dulbeco's modified Eagle's medium with 4.5 gm/L glucose (Bio-Whittaker, Walkersville, Md.) supplemented with 5% fetal bovine serum (Bio-Whittaker), 0.02 mM glutamine (GIBCO; Grand Island, N.Y.), 0.1 U/ml insulin, 100 U/ml penicillin, and 100 μg/ml streptomycin (GIBCO) at 37° C. and 10% CO2. Cells were pretreated with semapimod (0.1-10 μM solutions prepared in 5% dextrose) followed by short exposure to LPS (5 μg/ml), peroxynitrite (ONOO^−, 50 μM) or cytomix (a combination of tumor necrosis factor (TNFα, 10 ng/ml), interleukin-1β (IL-β, 1 ng/ml), and interferon-gamma (IFNγ, 1000 U/ml) for 10 min. Preparation of the ONOO^− solution and cell treatment was as previously reported (36). The lysates were collected for Western blotting analysis as follows: proteins were extracted for 10 min at 4° C. witih lysis buffer (20 mM Tris pH 8.0, 150 mM NaCl, 1% NP-40, 0.5% sodium deoxycholate, 0.1% sodium dodecylsulfate) supplemented with protease and phosphatase inhibitors: 1 mM PMSF, 1 mM benzamidine, 50 μg/ml aprotinin, 0.5 mM Na3VO4, 20 mM NaF, and 0.5 mM phenylarsine oxide. Aliquots containing 50 μg total protein were resolved by SDS-polyacrylamide gel electrophoresis. Gels were electroblotted onto nitrocellulose membranes. Following 1 hr incubation in blocking solution (phosphate-buffered saline, 0.1% Tween-20, 2% fish gelatin, pH 7.5), membranes were incubated with primary (phospho-p38 and p38) and secondary horseradish peroxidase-conjugated antibodies as recommended by manufacturers. Membranes were then impregnated with luminol reagent and exposed to x-ray film.
(a) Rat intestinal epithelial cells (IEC-6) were pretreated with different doses of the drug (0.1-10 μM) for 1 hr. prior to stimulation with 5 μg/ml LPS for 10 min or (b) were pretreated with semapimod (5 μM) for 1 hr. prior to stimulation with 5 μg/ml LPS or ONOO^− (50 μM) for 10 min. The protein lysates were then collected and Western blotting analysis for phospho-p38 and p38 (loading control) was performed as described in Methods. (a) A representative blot for pp38/p38 and densitometric analysis showing the ratio of pp38/p38 band intensity. Ctrl are non-stimulated cells. Results in graph bars are the mean±S.E.M. (n=3 independent experiments, *P<0.05 vs. LPS treated cells without pretreatment with semapimod, analyzed by one-way ANOVA followed by Fisher's LSD Test).
The present inventors have previously shown that LPS causes rapid but transient activation of p38 MAP kinase as determined by increased phosphorylation of p38. […] The effect of semapimod on p38 activation by inflammatory mediators other than LPS was evaluated.

[4] = system: formula-feeding/hypoxia-mediated intestinal injury (experimental NEC); assay: Animal model of NEC: incidence of NEC and morphologic evaluation of terminal ileum; type: in vivo, Sprague-Dawley rats (newborn); conditions: FFH newborn rats
Experimental: as §1
Newborn rats separated from their mothers were fed a conventional formula and exposed to hypoxia after administration of the drug semapimod (0.1-1 mg/kg, i.p.) as described in Methods. […] Incidence of NEC was calculated as the percentage of animals displaying pathology scores higher than 0 as assessed by histology. Results in graph bars are the mean±S.E.M. (n=15-45 animals for each group, *P<0.05 vs. FFH without semapimod, analyzed by one-way ANOVA followed by Fisher's LSD Test).

[5] = system: Bax; assay: Western blotting of ileal mucosal scrapings, NEC model; type: in vivo, rat; conditions: FFH pups, 0.75 mg/kg IP daily, day 4, FIG. 4b
Experimental: as §1, §2

[6] = system: Bad; assay: as above; type: in vivo, rat; conditions: FFH pups, 0.75 mg/kg IP daily, day 4, FIG. 4a
Experimental: as §1, §2

[7] = system: HMGB1; assay: as above; type: in vivo, rat; conditions: FFH+semapimod vs FFH, day 4, 30 kDa band, FIG. 3a
Experimental: as §1, §2

[8] = system: RAGE; assay: as above; type: in vivo, rat; conditions: FFH+semapimod vs FFH, day 4, 45 and 25 kDa bands, FIG. 3c
Experimental: as §1, §2

[9] = system: endotoxin-induced TNF release and shock; conditions: adult male Lewis rats, icv. vs intravenous; cited from earlier work
[10] = 0.1-10 μM pretreatment 1 hr, then 5 μg/ml LPS 10 min, FIG. 6a

For `C/C(=N\NC(=N)N)c1cc(NC(=O)CCCCCCCCC(=O)Nc2cc(/C(C)=N/NC(=N)N)cc(/C(C)=N/NC(=N)N)c2)cc(/C(C)=N/NC(=N)N)c1` [semapimod], the “expression of iNOS protein in terminal ileum” value [1] was “significantly decreased”, the “expression of COX-2 protein in terminal ileum” value [2] was “significantly decreased” and the “phosphorylation of p38 induced by ONOO−” value ([3]; 5 μM semapimod pretreatment 1 hr, ONOO− 50 μM 10 min, FIG. 6b) was “not inhibited”. For the same molecule, the “concentrations with maximal effect on LPS-induced phosphorylation of p38” value [3, 10] was “higher than 1 μM”, the “phosphorylation of p38 induced by LPS” value [3, 10] was “dose dependently inhibited” and the “p38 activation by a mixture of TNFα, IL-1β and IFN-γ” value ([3]; semapimod pretreatment, cytomix 10 min (not shown)) was “failed to inhibit”. For the same molecule, the “severity of intestinal injury / morphology as assessed by histology” value ([4]; 0.75 mg/kg i.p., day 4, FIG. 3b, 0.75 mg/kg) was “decrease in the severity of injury”, the “doses that prevented intestinal damage (reduction in the incidence of NEC)” value ([4]; semapimod 0.1-1 mg/kg i.p. daily, terminal ileum day 4, FIG. 2) was “higher than 0.5 mg/kg” and the “expression of Bax protein in mucosal scrapings” value [5] was “significantly decreased”. The “expression of Bad protein in mucosal scrapings” value [6] was “significantly decreased”, the “HMGB1 protein expression in ileal mucosa” value [7] was “reduced after administration of semapimod” and the “expression of RAGE in ileal mucosal scrapings” value [8] was “expression of RAGE was reduced”. The “effectiveness of icv. administration in suppressing endotoxin-induced TNF release and shock as compared with intravenous” value [9] was 100,000 fold.
